In patent publication US20110098492A1, “CLEANING COMPOSITIONS CONTAINING MID-RANGE ALKOXYLATES” (priority 2008, published 2011):

How the values were obtained:
[1] = Pour point test (ASTM D97); type: physicochemical
Experimental: C) Pour Point Test: This test is carried out according to the protocol of ASTM Test D97.

[2] = Ross-Miles foam height test (ASTM D1173); type: physicochemical; details: for Ross Miles Foam Height, millimeters, Initial: Initial (0 sec)
Experimental: A) Ross-Miles Foam Height Test: This test is carried out according to the protocol of ASTM […].

[3] = Surface tension and critical micelle concentration (Wilhelmy plate); type: physicochemical; details: for Surface Tension: 0.1 wt % in water; for Critical Micelle Concentration: in de-ionized water
Experimental: B) Surface Tension and Critical Micelle Concentration (CMC) Measurement. For this test the surface tension of a surfactant-water solution is measured while incrementally adding the surfactant to de-ionized water. Results are measured in terms of dyne/centimeters using a Wilhelmy plate. Results are recorded versus surfactant concentration. The Critical Micelle Concentration is the point at which an increase in surfactant concentration no longer results in a change in surface tension.

[4] = Gel range in water at 23 C; type: physicochemical; design: key: L = Liquid; G = Gel; TL = Thick Liquid
Experimental: One way the industry expresses a tendency of a surfactant to cause gels is a “gel range.” A typical gel range describes a percentage of samples that form gels, out of a number of samples, each having increasing surfactant concentration. […] A sample forms a gel when it is non-pourable for at least five seconds at 23° centigrade (° C.) when its container is inverted 180° so the container's open spout or mouth faces down. For many applications, a surfactant ideally has no gel range.
D) Gel range: Ten surfactant solutions are made using 0%, 10%, 20%, 30%, 40%, 50%, 60%, 70%, 80%, 90% water. […] The test is run at 23 C.

[5] = system: Sicklepod; experiment: Greenhouse herbicide adjuvant efficacy with glyphosate; type: in vivo; details: adjuvant 0.25% v/v in spray, visual injury at 18 DAA
Experimental: Efficacy of Examples 7 and 8 as adjuvants in formulated herbicides is compared to commercially available herbicide packages. Greenhouse field testing is completed. A 480 g ae/L (acid equivalent per liter) formulation of glyphosate isopropylamine with no adjuvants is added to spray vials. These aliquots are diluted to a final volume of 60 ml with tap water, and appropriate amounts of adjuvants are added to the spray solution. The Examples 7 and 8 series are tested at 0.25% v/v in the final spray solution. Treatment rates are: 200, 400, and 600 g ae/ha (“ha” means hectare) and each treatment is replicated three times. Treatments are applied with a tracksprayer. The sprayer utilizes an 8002E spray nozzle, spray pressure of 262 kPa pressure and speed of 2.2 mph to deliver 140 L/Ha. The nozzle height is 46 cm above the pots. Percent visual injury assessments are made at 18 DAA (days after application) on a scale of 0 to 100% as compared to the untreated control plants (where 0 is equal to no injury and 100 is equal to complete death of the plant). Results are shown in Table 10 as % Control of Sicklepod with Glyphosate compared to commercial herbicides.

[6] = Cleaning of cross-linked triglycerides (Gardner scrubber, soiled vinyl tile); design: key to Arbitrary Gray Value: mean gray value of tile image (ImageJ); details: 120 back-and-forth strokes, higher = better cleaning
Experimental: Test panels coated with mixtures of triglycerides and cross-linked triglycerides were prepared and evaluated using the following procedure. Cobalt Naphthenate was used as a catalyst to accelerate the oxidation of vegetable oil to give a hard varnish. Carbon black is added to the varnish to enable easy visual comparison of the ability to clean the cross-linked triglyceride from the surface.
Substrate Panels: White Vinyl Floor Tile: Tarket Corporation Azrock™ VS304-3 (6913) cut to 4¼×4¼ inch (to fit the Gardner Linear Motion Scrubber).
Soil Formulation: 100 grams Canola Oil (Food Grade, 100%, Kroger Co. Cincinnati, Ohio 45202); 2 grams Acetylene Carbon Black (Cat #39724, Alfa Aesar; Surface area=74 sq m/g); 20 grams drying agent: Cobalt Naphthenate Solution (Aldrich Cat #54,457-4, CAS #61789-51-3) (Comes as a 6% solution in petroleum solvent); Oven: Convection oven set at 160° F.
Scrubbing Tester: Gardco washability & Wear Tester; Linear Motion Test Equipment; Model D12-V Cat #WA-2164 (Paul N. Gardner Company, Inc. 316 N.E. First Street, Pompano, Beach, Fla. 33060.
Sponges: “Do-It” Cellulose Sponge, 1⅝ in thick, cut to 3″×4″. Manufactured by Bloch/New England for HWI, Fort Wayne, Ind. 46801;
Paint Brushes: Economy Chip Brush 1 Inch. www.lgsourcing.com Model #0106; Item #103407 obtained from Lowes, Inc. L. G. Sourcing, Inc. P.O. Box 1535 North Wilkseboro, N.C. 28659
Reflectance Meter: HunterLab ColorQuest XE
Prepare a stock solution by mixing 98 grams of canola oil (food grade) with 2.0 g acetylene-based carbon black (Cat #39724, Alfa Aesar; Surface area=74 sq m/g). Mix with a disperser at 2000 rpm for 15 min. (We used a Caframo Model BDC 3030 with a 0.50 dispersing blade).
Add 20.0 grams Cobalt Naphthenate Solution and mix well (by hand, using a glass stir rod).
Place 1.6 grams soil per 4×4 inch tile.
Paint to a thin film using a clean 1-inch economy brush. Use several strokes to get to an even coating. Use a clean, dry brush for each application. (After the application, each brush can be cleaned with acetone, dried, and then re-used).
Place in a convection oven set at 160 F for 16 hours. We place the panels in an oven at 4:00 p.m, and then remove the panels at 8:00 a.m. the next morning. Let the panels cool for 1 hour.
Use the panels within 10 days
Place a panel in the Gardner Scrubber
[…] (We use 5.0 grams surfactant diluted to 500 mL water).
Prepare a sponge by rinsing several times in cold tap water. Completely squeeze out the sponge by hand.
After each test, rinse out the sponge 15-20 times (by repeated sorption and squeezing) until there is no noticeable surfactant solution left (usually indicated by a lack of foam).
Pour 500 mL of surfactant solution into a beaker
Place the sponge into the beaker—allowing it to soak up as much surfactant as possible.
Place the sponge into the Gardner Scrubber.
Pour the remaining liquid (approx 400 mL) over the test panel in the scrubber. There should be enough liquid to just cover the test panel.
Program the scrubber to perform 120 back-and-forth strokes (for a total of 240 linear strokes). We define each back-and-forth stroke as “1 stroke”
Remove the panel rinse with tap water
Clean the Gardner scrubber by rinsing with tap water.
Clean the sponge by squeezing it out under tap water 20-30 times until clean.
Remove excess water from the sponge by squeezing as much liquid out as possible.
After the panel is dry, either take pictures (for visual comparison of cleaning) or measure the reflectance using the Xyy mode of a Hunter Colorimeter. Alternatively, the mean gray value can be obtained by taking a picture of the tiles and processing computer image with ImageJ™ software, which is distributed freely by the National Institute of Health (nih.gov).

[7] = system: Daphna magna; experiment: 48-hour acute toxicity to Daphnia; type: in vivo
Source text: The study procedures and test methods were based on the recommendations of the following guidelines: […]

[8] = system: Desmondesmus subspicatus; experiment: Fresh water algal growth inhibition test (OECD 201); type: cell-based; details: growth rate
Source text: Organization for Economic Cooperation and Development (OECD): OECD Guidelines for the Testing of Chemicals, “Freshwater Alga and Cyanobacteria, Growth Inhibition Test”, Procedure 201, adopted 23 Mar. 2006; European Economic Community (EEC): […] OECD Guidelines for the Testing of Chemicals, “Freshwater Alga and Cyanobacteria, Growth Inhibition Test”, Procedure 201, adopted 23 Mar. 2006; European Economic Community (EEC): […]

[9] = Cloud point; type: physicochemical
[10] = Formula stability with LAS, sodium citrate and water; type: physicochemical; design: key to Formula stability: S = Stable; U = Unstable
Source text: When mixed with dodecyl benzene sulfonic acid (sodium salt), and sodium citrate in water, the surfactants of the present invention show enhanced formula stability relative to conventional surfactants.

2EH(PO)3(EO)6.8 [Example 2]
Pour Point [1]: 50 ° F. | Ross Miles Foam Height, millimeters, 5 Minutes [2]: 5 millimeters | Ross Miles Foam Height, millimeters, Initial [2]: 115 millimeters | Surface Tension [3]: 32 dyne/centimeters | Critical Micelle Concentration [3]: 2400 ppm | Gel Range, Percent Surfactant in Water at 23 C. ([4]; 10% surfactant in water): L | Gel Range, Percent Surfactant in Water at 23 C. ([4]; 20% surfactant in water): L | Gel Range, Percent Surfactant in Water at 23 C. ([4]; 30% surfactant in water): L | Gel Range, Percent Surfactant in Water at 23 C. ([4]; 40% surfactant in water): L | Gel Range, Percent Surfactant in Water at 23 C. ([4]; 50% surfactant in water): L | Gel Range, Percent Surfactant in Water at 23 C. ([4]; 60% surfactant in water): L | Gel Range, Percent Surfactant in Water at 23 C. ([4]; 70% surfactant in water): L | Gel Range, Percent Surfactant in Water at 23 C. ([4]; 80% surfactant in water): L | Gel Range, Percent Surfactant in Water at 23 C. ([4]; 90% surfactant in water): L

2EH(PO)5(EO)9 [Example 8]
% Control of Sicklepod with Glyphosate ([5]; 200 G/ha glyphosate): 31.7% | % Control of Sicklepod with Glyphosate ([5]; 400 G/ha glyphosate): 73.3% | % Control of Sicklepod with Glyphosate ([5]; 600 G/ha glyphosate): 75.0% | Arbitrary Gray Value ([6]; 1% by weight in water): 128 | 48-hour Acute Toxicity to Daphna magna (EC50-50 hour) [7]: >100 µg/mL | Fresh Water algal growth inhibition test with Desmondesmus subspicatus ErC50/0-3 [8]: 97.7 mg/L

C9(PO)4(EO)6.8
cloud point [9]: 43.0 C

C9(PO)4(EO)5.5
cloud point [9]: 31.0 C

2EH(PO)11(EO)11 [Example 5]
Pour Point [1]: 36 ° F. | Formula stability ([10]; 15% LAS/0% Na Cit in water): S | Formula stability ([10]; 15% LAS/1% Na Cit in water): S | Formula stability ([10]; 15% LAS/2% Na Cit in water): S | Formula stability ([10]; 15% LAS/4% Na Cit in water): U | formula stability (in words) ([10]; cleaning formulations, without hydrotrope): stable | Ross Miles Foam Height, millimeters, 5 Minutes [2]: 15 millimeters | Ross Miles Foam Height, millimeters, Initial [2]: 75 millimeters | Surface Tension [3]: 30 dyne/centimeters | Critical Micelle Concentration [3]: 300 ppm | Gel Range, Percent Surfactant in Water at 23 C. ([4]; 10% surfactant in water): L | Gel Range, Percent Surfactant in Water at 23 C. ([4]; 20% surfactant in water): L | Gel Range, Percent Surfactant in Water at 23 C. ([4]; 30% surfactant in water): L | Gel Range, Percent Surfactant in Water at 23 C. ([4]; 40% surfactant in water): G | Gel Range, Percent Surfactant in Water at 23 C. ([4]; 50% surfactant in water): G | Gel Range, Percent Surfactant in Water at 23 C. ([4]; 60% surfactant in water): G | Gel Range, Percent Surfactant in Water at 23 C. ([4]; 70% surfactant in water): G | Gel Range, Percent Surfactant in Water at 23 C. ([4]; 80% surfactant in water): G | Gel Range, Percent Surfactant in Water at 23 C. ([4]; 90% surfactant in water): L

C12-14(EO)5 [reference compound]
Arbitrary Gray Value ([6]; 1% by weight in water): 68

C8-16(PO)2.5(EO)5 [reference compound]
Arbitrary Gray Value ([6]; 0.5% by weight in water): 48

C9(BO)1(EO)7 [Example 9]
cloud point [9]: 53.9 C | Arbitrary Gray Value ([6]; 1% by weight in water): 121 | 48-hour Acute Toxicity to Daphna magna (EC50-50 hour) [7]: 6.2 µg/mL | Fresh Water algal growth inhibition test with Desmondesmus subspicatus ErC50/0-3 [8]: 21 mg/L
